Test results published in the NIST ThermoML archive (doi:10.1016/j.jct.2016.10.047).

Assay: heat capacity at constant pressure per volume; xn = mol fraction of the nth substance listed
Details: 102.6 kPa, Liquid, DSC, x1 = 0.08

CCCCCCCC[n+]1ccn(C)c1.F[P-](F)(F)(F)(F)F [1-octyl-3-methylimidazolium hexafluorophosphate] + CC(C)O
Details | heat capacity [J/K/m3]
306.1 K | 2358000
306.31 K | 2360000
306.53 K | 2376000
306.74 K | 2371000
306.95 K | 2378000
307.16 K | 2393000
307.38 K | 2371000
307.59 K | 2387000
307.8 K | 2406000
308.01 K | 2407000
308.23 K | 2403000
308.44 K | 2417000
308.65 K | 2426000
308.86 K | 2437000
309.07 K | 2429000
309.29 K | 2462000
309.5 K | 2458000
309.71 K | 2492000
309.92 K | 2498000
310.14 K | 2474000
310.35 K | 2486000
310.56 K | 2543000
310.77 K | 2578000
310.99 K | 2348000
311.2 K | 2313000
311.41 K | 2300000
311.62 K | 2301000
311.83 K | 2289000
312.05 K | 2291000
312.26 K | 2283000
312.47 K | 2282000
312.68 K | 2283000
312.89 K | 2268000
313.11 K | 2279000
313.32 K | 2266000
313.53 K | 2277000
313.74 K | 2270000
313.96 K | 2249000
314.17 K | 2265000
314.38 K | 2249000
314.59 K | 2263000
314.81 K | 2253000
315.02 K | 2254000
315.23 K | 2257000
315.44 K | 2255000
315.65 K | 2262000
315.87 K | 2264000
316.08 K | 2265000
316.29 K | 2248000
316.5 K | 2255000
316.72 K | 2243000
316.93 K | 2245000
317.14 K | 2256000
317.35 K | 2241000
317.57 K | 2246000
317.78 K | 2253000
317.99 K | 2242000
318.2 K | 2249000
318.42 K | 2245000
318.63 K | 2234000
318.84 K | 2249000
319.3 K | 2241000
319.64 K | 2242000
319.98 K | 2241000
320.31 K | 2240000
320.65 K | 2241000
320.99 K | 2241000
321.33 K | 2240000
321.67 K | 2240000
322 K | 2240000
322.34 K | 2241000
322.68 K | 2240000
323.02 K | 2240000
323.36 K | 2240000
323.69 K | 2240000
324.03 K | 2239000
324.37 K | 2239000
324.71 K | 2239000
325.05 K | 2240000
325.38 K | 2240000
325.72 K | 2238000
326.06 K | 2239000
326.4 K | 2239000
326.74 K | 2240000
327.07 K | 2239000
327.41 K | 2241000
327.75 K | 2240000
328.09 K | 2239000
328.43 K | 2240000
328.76 K | 2240000
329.1 K | 2240000
329.44 K | 2240000
329.78 K | 2240000
330.12 K | 2240000
330.46 K | 2241000
330.79 K | 2241000
331.13 K | 2237000
331.47 K | 2242000
331.81 K | 2239000
332.15 K | 2241000
332.48 K | 2241000
332.82 K | 2240000
333.16 K | 2239000
333.5 K | 2240000
333.84 K | 2241000
334.17 K | 2241000
334.51 K | 2241000
334.85 K | 2240000
335.19 K | 2243000
335.53 K | 2243000
335.86 K | 2242000
336.2 K | 2244000
336.54 K | 2243000
336.88 K | 2246000
337.22 K | 2247000
337.56 K | 2248000
337.89 K | 2251000
338.23 K | 2251000
338.57 K | 2254000
338.91 K | 2241000
